Results: patent US20240384268A1, “Oligonucleotides” (Hudson Institute of Medical Research, priority 2021, published 2024)
pIC50: −log10 of the molar value. In the oligonucleotide strings, read from the 5' end, every base follows the letter of its sugar. An asterisk marks phosphorothioate; unmarked linkages are phosphodiester. Other units and linkages are bracketed, terminal groups are in braces. A string of capitals states the bases alone. d = 2'-deoxy (DNA); m = 2'-O-methyl

Target: T1, TLR3 (Homo sapiens, UniProt O15455)
T1 sequence (O15455 24-904): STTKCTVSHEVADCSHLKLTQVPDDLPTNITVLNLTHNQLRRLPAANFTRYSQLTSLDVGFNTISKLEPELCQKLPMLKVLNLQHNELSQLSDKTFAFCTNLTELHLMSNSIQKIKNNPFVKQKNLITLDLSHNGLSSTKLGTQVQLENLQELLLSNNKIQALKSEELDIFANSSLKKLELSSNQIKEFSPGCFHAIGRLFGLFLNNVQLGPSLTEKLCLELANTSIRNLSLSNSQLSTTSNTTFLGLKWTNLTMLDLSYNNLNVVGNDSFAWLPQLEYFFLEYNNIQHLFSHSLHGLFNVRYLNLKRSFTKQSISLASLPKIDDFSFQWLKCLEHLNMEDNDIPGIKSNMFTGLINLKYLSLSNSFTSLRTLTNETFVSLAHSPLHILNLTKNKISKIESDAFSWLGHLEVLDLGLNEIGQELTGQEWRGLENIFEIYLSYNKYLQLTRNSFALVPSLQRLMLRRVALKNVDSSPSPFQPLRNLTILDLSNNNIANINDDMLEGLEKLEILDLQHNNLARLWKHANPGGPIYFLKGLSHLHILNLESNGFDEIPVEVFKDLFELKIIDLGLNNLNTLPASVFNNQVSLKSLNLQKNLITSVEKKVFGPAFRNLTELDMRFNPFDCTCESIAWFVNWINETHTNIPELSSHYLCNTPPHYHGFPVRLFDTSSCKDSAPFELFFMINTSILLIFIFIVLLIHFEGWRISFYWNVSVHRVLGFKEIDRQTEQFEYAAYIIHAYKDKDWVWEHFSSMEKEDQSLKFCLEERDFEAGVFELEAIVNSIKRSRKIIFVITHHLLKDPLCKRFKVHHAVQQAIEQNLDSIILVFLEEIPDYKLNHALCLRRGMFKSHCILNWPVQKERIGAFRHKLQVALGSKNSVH
Assay: HEK-TLR3 NF-κB-luciferase reporter, poly(I:C) stimulation
Assay type: cell-based
Set-up: host or cells: HEK-Blue hTLR3 (HEK293)
Details: for pIC50: 30-50 min before 0.5 μg/ml pIC overnight, read-out: IC50 (polyI:C sensing by TLR3)

[1] = 3mer 2'OMe ASO at 2 uM, value relative to Ligand only = 1.000, NT = 0.000
[2] = 3-mers DNA PS 45 min, then 500 ng/ml polyI:C overnight, NF-κB-luciferase normalised to polyI:C only (Ligand 1.000, NT 0.000)

Substance	TLR3 2uM [1]	other results
AAU (antisense mA*mA*mU)	0.888	
ACU (antisense mA*mC*mU)	1.062	
AGU (antisense mA*mG*mU)	0.829	
AUA (antisense mA*mU*mA)	0.570	
AUG (mA*mU*mG)	0.859	
AUU (mA*mU*mU)	0.809	
CAU (mC*mA*mU)	0.866	
CCU (mC*mC*mU)	0.870	
CGU (mC*mG*mU)	0.833	
CUA (mC*mU*mA)	0.851	
CUC (mC*mU*mC)	0.874	
CUG (mC*mU*mG)	0.870	
GCU (mG*mC*mU)	0.808	
GGU (mG*mG*mU)	0.829	
T*T*A* G*G*G* T*T*A* G*G*G* T*T*A* G*G*G* T*T*A* G*G*G [A151, reference compound]		inhibition of polyI:C sensing by TLR3 at 500 nM (in words) (500 nM ASOs/ODNs, poly(I:C) 1 μg/ml): only partially reduced polyL:C-dependent TLR3 activation; pIC50: < 6.12
UAA (mU*mA*mA)	0.790	
UAC (mU*mA*mC)	0.813	
UAG (mU*mA*mG)	0.940	
UAU (mU*mA*mU)	0.915	
UCC (mU*mC*mC)	0.761	
UCU (mU*mC*mU)	0.804	
UGC (mU*mG*mC)	0.903	
UGU (mU*mG*mU)	0.967	
UUA (mU*mU*mA)	1.081	
UUC (mU*mU*mC)	1.023	
UUG (listed as RNA, chemistry not fully specified)	1.030	
UUU (mU*mU*mU)	0.970	

Substance	TLR3 2uM [1]	other results
dA*dA*dA (DNA AAA; listed as DNA, chemistry not fully specified)	1.026	TLR3 2uM [2]: 1.065
dA*dA*dC (DNA AAC; listed as DNA, chemistry not fully specified)	0.901	TLR3 2uM [2]: 0.861
dA*dA*dG (DNA AAG; listed as DNA, chemistry not fully specified)	0.616	TLR3 2uM [2]: 0.825
dA*dC*dA (DNA ACA; listed as RNA, chemistry not fully specified)	1.053	TLR3 2uM [2]: 0.832
dA*dG*dA (DNA AGA; listed as DNA, chemistry not fully specified)	0.829	TLR3 2uM [2]: 0.849
dA*dG*dC (DNA AGC; listed as DNA, chemistry not fully specified)	1.019	TLR3 2uM [2]: 0.854
dC*dA*dA (CAA; listed as DNA, chemistry not fully specified)	0.771	TLR3 2uM [2]: 0.909
dC*dA*dC (CAC; listed as RNA, chemistry not fully specified)	0.841	TLR3 2uM [2]: 0.796
dC*dC*dA (CCA; listed as DNA, chemistry not fully specified)	0.917	TLR3 2uM [2]: 0.763
dC*dC*dC (CCC; listed as DNA, chemistry not fully specified)	0.933	TLR3 2uM [2]: 0.811
dC*dC*dG (CCG; listed as DNA, chemistry not fully specified)	0.770	TLR3 2uM [2]: 0.867
dC*dG*dA (CGA; listed as DNA, chemistry not fully specified)	0.780	TLR3 2uM [2]: 0.823
dG*dC*dC [GCC]	0.884	TLR3 2uM [2]: 0.895
dG*dC*dG [GCG]	0.830	TLR3 2uM [2]: 0.867
mAmUmC (mA*mU*mC) [AUC, 3-mer 2′OMe PS oligo]	0.768	
mCmUmU (antisense mC*mU*mU) [660-3]	0.846	
mG*mC*mG*mG*mU*A*T*C*C*A*T*G*T*C*C*mC*mA*mG*mG*mC (mG*mC*mG*mG*mU*dA*dT*dC*dC*dA*dT*dG*dT*dC*dC*mC*mA*mG*mG*mC; antisense) [C2-Mut1]		pIC50: 7.21
mGmAmU (mG*mA*mU) [GAU, 3-mer 2′OMe PS oligo]	0.771	
mGmUmA (GUA; all 2'-O-methyl, backbone not given here; further chemistry not fully specified) [shortMut1-3b]	0.839	
mGmUmC (mG*mU*mC) [GUC, 3-mer 2′OMe PS oligo]	0.752	
mGmUmG (mG*mU*mG) [GUG, 3-mer 2′OMe PS oligo]	0.786	
mGmUmU (mG*mU*mU) [GUU, 3-mer 2′OMe PS oligo]	0.825	
mUmCmA (mU*mC*mA) [UCA, 3-mer 2′OMe PS oligo]	0.765	
mUmCmG (antisense mU*mC*mG) [660-3b]	0.850	
mUmGmA (mU*mG*mA) [UGA, 3-mer 2′OMe PS oligo]	0.806	
mUmGmG (mU*mG*mG) [UGG, 3-mer 2′OMe PS oligo]	0.764	
